Key:
[1] = target: T1, c-Kit(V654A) (Homo sapiens, UniProt P10721, V654A); test: c-Kit(V654A) assay; type: biochemical; settings: recombinant human c-Kit aa 544-end, 200 μM ATP, 1.4E-06 means 1.4×10^−6, read-out: Inhibition (IC50) of c-KIT (V654A)
T1 construct: amino acids 544-end containing the V654A mutation; GST (N)
Protocol: (§1) c-Kit(V654A) (N-terminal GST-tagged, recombinant human c-Kit, amino acids 544-end containing the V654A mutation) is incubated with 8 mM MOPS pH 7.0, 0.2 mM EDTA, 250 μM GGMEDIYEFMGGKKK, 10 mM MgAcetate and [gamma-33P-ATP] (specific activity approx. 500 cpm/pmol, concentration 200 μM). The reaction is initiated by the addition of the MgATP mix. After incubation for 40 minutes at room temperature, the reaction is stopped by the addition of 3% phosphoric acid solution. 10 μL of the reaction is then spotted onto a P30 filtermat and washed three times for 5 minutes in 75 mM phosphoric acid and once in methanol prior to drying and scintillation counting.

[2] = target: T2, PDGFRalpha(V561D) (Homo sapiens, UniProt P16234, V561D); test: PDGFRalpha(V561D) assay; type: biochemical; settings: recombinant human PDGFRalpha aa 550-end, 200 μM ATP, 1.4E-06 means 1.4×10^−6, read-out: Inhibition (IC50) of PDGFRα (V561D)
T2 construct: recombinant human PDGFRalpha, amino acids 550end containing the V561 D mutation; 6His (N)
Protocol: as §1, with “PDGFRalpha(V561D)” for “c-Kit(V654A)”, “6His-tagged,” for “GST-tagged,”, “PDGFRalpha,” for “c-Kit,”, “550end” for “544-end”, “V561 D” for “V654A”

T1 sequence (P10721 544-976 V654A): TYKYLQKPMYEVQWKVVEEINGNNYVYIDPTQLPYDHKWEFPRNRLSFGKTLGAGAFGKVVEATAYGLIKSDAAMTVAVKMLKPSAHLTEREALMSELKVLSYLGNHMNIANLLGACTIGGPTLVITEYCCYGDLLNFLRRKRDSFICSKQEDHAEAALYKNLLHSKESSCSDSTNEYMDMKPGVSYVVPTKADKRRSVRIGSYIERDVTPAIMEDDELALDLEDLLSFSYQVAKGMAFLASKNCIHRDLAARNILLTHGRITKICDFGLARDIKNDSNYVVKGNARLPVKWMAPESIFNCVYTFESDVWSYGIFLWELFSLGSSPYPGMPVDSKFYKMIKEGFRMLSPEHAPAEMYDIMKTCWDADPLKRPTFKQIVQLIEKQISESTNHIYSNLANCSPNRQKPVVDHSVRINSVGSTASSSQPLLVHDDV
T2 sequence (P16234 550-1089 V561D): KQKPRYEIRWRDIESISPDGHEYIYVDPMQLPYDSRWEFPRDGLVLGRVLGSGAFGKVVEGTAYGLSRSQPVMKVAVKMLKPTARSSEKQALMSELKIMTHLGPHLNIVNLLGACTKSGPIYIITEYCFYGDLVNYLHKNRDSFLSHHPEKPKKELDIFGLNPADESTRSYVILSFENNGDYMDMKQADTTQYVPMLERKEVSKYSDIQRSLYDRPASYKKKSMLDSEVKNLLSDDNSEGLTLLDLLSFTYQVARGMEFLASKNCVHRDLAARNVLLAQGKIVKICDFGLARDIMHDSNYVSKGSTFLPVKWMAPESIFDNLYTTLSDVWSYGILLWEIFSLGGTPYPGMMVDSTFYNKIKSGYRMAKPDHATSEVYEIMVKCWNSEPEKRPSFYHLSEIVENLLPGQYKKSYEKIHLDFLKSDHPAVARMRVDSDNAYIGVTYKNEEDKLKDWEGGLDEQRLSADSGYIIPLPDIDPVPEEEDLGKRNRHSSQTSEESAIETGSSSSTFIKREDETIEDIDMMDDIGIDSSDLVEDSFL

IC50 [1]	IC50 [2]	SMILES
30 nM	200 nM	COCC1CCCN1C(=O)c1ccc(-n2cc(-c3cc4cc(F)ccc4[nH]c3=O)nn2)cc1 (stereo in doubt) [A198, 6-fluoro-3-{1-[4-((R)-2-methoxymethyl-pyrrolidine-1-carbonyl)-phenyl]-1H-[1,2,3]triazol-4-yl}-1H-quinolin-2-one]
45 nM	240 nM	NC1CCN(C(=O)c2ccc(-n3cc(-c4cc5cc(F)ccc5[nH]c4=O)nn3)cc2)C1 (stereo in doubt) [A306, 3-{1-[4-((S)-3-amino-pyrrolidine-1-carbonyl)-phenyl]-1H-[1,2,3]triazol-4-yl}-6-fluoro-1H-quinolin-2-one]
89 nM	1600 nM	CO[C@H]1CC[C@@H](Oc2ccc(-n3cc(-c4cc5cc(F)ccc5[nH]c4=O)nn3)cc2)C1 (stereo in doubt) [A355, 6-Fluoro-3-{1-[4-((trans)-3-methoxy-cyclopentyloxy)-phenyl]-1H-[1,2,3]triazol-4-yl}-1H-quinolin-2-one]
96 nM	150 nM	CO[C@@H]1CC[C@H](Oc2ccc(-n3cc(-c4cc5cc(Cl)ccc5[nH]c4=O)nn3)cc2)C1 (stereo in doubt) [A356, 6-chloro-3-{1-[4-((1S,3R)-3-methoxy-cyclopentyloxy)-phenyl]-1H-[1,2,3]triazol-4-yl}-1H-quinolin-2-one]
6 nM	2 nM	O=C(c1ccc(-n2cc(-c3cc4cc(F)ccc4[nH]c3=O)nn2)cc1)N1CCOCC1 [A1, 6-fluoro-3-{1-[4-(morpholine-4-carbonyl)-phenyl]-1H-[1,2,3]triazol-4-yl}-1H-quinolin-2-one]
51 nM	12 nM	O=C(c1ccc(-n2cc(-c3cc4ccccc4[nH]c3=O)nn2)cc1)N1CCOCC1 [A2, 3-{1-[4-(morpholine-4-carbonyl)-phenyl]-1H-[1,2,3]triazol-4-yl}-1H-quinolin-2-one]
53 nM	16 nM	CN(C)C(=O)c1ccc(-n2cc(-c3cc4cccnc4[nH]c3=O)nn2)cc1 [A3, N,N-dimethyl-4-[4-(2-oxo-1,2-dihydro-[1,8]naphthyridin-3-yl)-[1,2,3]triazol-1-yl]-benzamide]
34 nM	19 nM	CN(C)C(=O)c1ccc(-n2cc(-c3cc4ccccc4[nH]c3=O)nn2)cc1 [A4, N,N-dimethyl-4-[4-(2-oxo-1,2-dihydro-quinolin-3-yl)-[1,2,3]triazol-1-yl]-benzamide]
170 nM	14 nM	O=C(NCCO)c1ccc(-n2cc(-c3cc4cccnc4[nH]c3=O)nn2)cc1 [A8, N-(2-hydroxy-ethyl)-4-[4-(2-oxo-1,2-dihydro-[1,8]naphthyridin-3-yl)-[1,2,3]triazol-1-yl]-benzamide]
760 nM	230 nM	COCCNC(=O)c1ccc(-n2cc(-c3cc4cccnc4[nH]c3=O)nn2)cc1 [A9, N-(2-methoxy-ethyl)-4-[4-(2-oxo-1,2-dihydro-[1,8]naphthyridin-3-yl)-[1,2,3]triazol-1-yl]-benzamide]
82 nM	32 nM	COc1ccc(-n2cc(-c3cc4ccccc4[nH]c3=O)nn2)cc1 [A10, 3-[1-(4-methoxy-phenyl)-1H-[1,2,3]triazol-4-yl]-1H-quinolin-2-one]
220 nM	26 nM	CN(C)C(=O)c1ccc(-n2cc(-c3cc4cc(Cl)cnc4[nH]c3=O)nn2)cc1 [A11, 4-[4-(6-chloro-2-oxo-1,2-dihydro-[1,8]naphthyridin-3-yl)-[1,2,3]triazol-1-yl]-N,N-dimethyl-benzamide]
69 nM	63 nM	O=c1[nH]c2ccccc2cc1-c1cn(-c2ccc(F)cc2)nn1 [A12, 3-[1-(4-fluoro-phenyl)-1H-[1,2,3]triazol-4-yl]-1H-quinolin-2-one]
–	500 nM	O=c1[nH]c2ccccc2cc1-c1cn(-c2ccccc2F)nn1 [A13, 3-[1-(2-fluoro-phenyl)-1H-[1,2,3]triazol-4-yl]-1H-quinolin-2-one]
23 nM	20 nM	O=c1[nH]c2ccccc2cc1-c1cn(-c2ccc(OCCN3CCCC3)cc2)nn1 [A14, 3-{1-[4-(2-pyrrolidin-1-yl-ethoxy)-phenyl]-1H-[1,2,3]triazol-4-yl}-1H-quinolin-2-one]
49 nM	47 nM	CN1CCC(CNC(=O)c2ccc(-n3cc(-c4cc5ccccc5[nH]c4=O)nn3)cc2)CC1 [A15, N-(1-methyl-piperidin-4-ylmethyl)-4-[4-(2-oxo-1,2-dihydro-quinolin-3-yl)-[1,2,3]triazol-1-yl]-benzamide]

IC50 [1]	IC50 [2]	SMILES
–	33 nM	COc1cnc2[nH]c(=O)c(-c3cn(-c4ccc(C(=O)N(C)C)cc4)nn3)cc2c1 [A16, 4-[4-(6-methoxy-2-oxo-1,2-dihydro-[1,8]naphthyridin-3-yl)-[1,2,3]triazol-1-yl]-N,N-dimethyl-benzamide]
290 nM	67 nM	COC(=O)c1cc(-n2cc(-c3cc4ccccc4[nH]c3=O)nn2)ccn1 [A17, 4-[4-(2-oxo-1,2-dihydro-quinolin-3-yl)-[1,2,3]triazol-1-yl]-pyridine-2-carboxylic acid methyl ester]
15 nM	5 nM	CN(C)C(=O)c1ccc(-n2cc(-c3cc4cc(F)ccc4[nH]c3=O)nn2)cc1 [A18, 4-[4-(6-fluoro-2-oxo-1,2-dihydro-quinolin-3-yl)-[1,2,3]triazol-1-yl]-N,N-dimethyl-benzamide]
38 nM	14 nM	O=C(NCCO)c1ccc(-n2cc(-c3cc4ccccc4[nH]c3=O)nn2)cc1 [A19, N-(2-hydroxy-ethyl)-4-[4-(2-oxo-1,2-dihydro-quinolin-3-yl)-[1,2,3]triazol-1-yl]-benzamide]
79 nM	32 nM	O=C(NCCN1CCOCC1)c1ccc(-n2cc(-c3cc4ccccc4[nH]c3=O)nn2)cc1 [A21, N-(2-morpholin-4-yl-ethyl)-4-[4-(2-oxo-1,2-dihydro-quinolin-3-yl)-[1,2,3]triazol-1-yl]-benzamide]
27 nM	6 nM	CN1CCC(CNC(=O)c2ccc(-n3cc(-c4cc5cc(F)ccc5[nH]c4=O)nn3)cc2)CC1 [A22, 4-[4-(6-fluoro-2-oxo-1,2-dihydro-quinolin-3-yl)-[1,2,3]triazol-1-yl]-N-(1-methyl-piperidin-4-ylmethyl)-benzamide]
–	250 nM	COC(=O)c1cccc(-n2cc(-c3cc4ccccc4[nH]c3=O)nn2)c1 [A23, 3-[4-(2-oxo-1,2-dihydro-quinolin-3-yl)-[1,2,3]triazol-1-yl]-benzoic acid methyl ester]
110 nM	26 nM	COc1cccc(-n2cc(-c3cc4ccccc4[nH]c3=O)nn2)c1 [A24, 3-[1-(3-methoxy-phenyl)-1H-[1,2,3]triazol-4-yl]-1H-quinolin-2-one]
15 nM	3 nM	O=C1COCCN1c1ccc(-n2cc(-c3cc4ccccc4[nH]c3=O)nn2)cc1 [A25, 3-{1-[4-(3-oxo-morpholin-4-yl)-phenyl]-1H-[1,2,3]triazol-4-yl}-1H-quinolin-2-one]
15 nM	10 nM	O=c1[nH]c2ccccc2cc1-c1cn(-c2ccc(OCCN3CCOCC3)cc2)nn1 [A26, 3-{1-[4-(2-morpholin-4-yl-ethoxy)-phenyl]-1H-[1,2,3]triazol-4-yl}-1H-quinolin-2-one]
50 nM	32 nM	O=c1[nH]c2ccccc2cc1-c1cn(-c2ccccc2)nn1 [A27, 3-(1-phenyl-1H-[1,2,3]triazol-4-yl)-1H-quinolin-2-one]
36 nM	29 nM	O=c1[nH]c2ccccc2cc1-c1cn(-c2ccc3nc[nH]c3c2)nn1 [A28, 3-[1-(3H-benzimidazol-5-yl)-1H-[1,2,3]triazol-4-yl]-1H-quinolin-2-one]
150 nM	23 nM	O=C(c1ccc(-n2cc(-c3cc4ccncc4[nH]c3=O)nn2)cc1)N1CCOCC1 [A29, 3-{1-[4-(morpholine-4-carbonyl)-phenyl]-1H-[1,2,3]triazol-4-yl}-1H-[1,7]naphthyridin-2-one]
2200 nM	150 nM	Cc1ccc2cc(-c3cn(-c4ccc(C(=O)N5CCOCC5)cc4)nn3)c(=O)[nH]c2n1 [A30, 7-methyl-3-{1-[4-(morpholine-4-carbonyl)-phenyl]-1H-[1,2,3]triazol-4-yl}-1H-[1,8]naphthyridin-2-one]
99 nM	13 nM	O=C(c1ccc(-n2cc(-c3cc4cc(F)cnc4[nH]c3=O)nn2)cc1)N1CCOCC1 [A31, 6-fluoro-3-{1-[4-(morpholine-4-carbonyl)-phenyl]-1H-[1,2,3]triazol-4-yl}-1H-[1,8]naphthyridin-2-one]
–	440 nM	O=C(c1ccc(-n2cc(-c3cc4ccccc4[nH]c3=O)cn2)cc1)N1CCNCC1 [A73, 3-{1-[4-(piperazine-1-carbonyl)-phenyl]-1H-pyrazol-4-yl}-1H-quinolin-2-one]

From patent US11939314B2, “Quinolin-2-one derivatives” (MERCK PATENT GMBH, priority 2016, dated 2024)
